Data on one molecule can be found in publication PMC7997578, “Design, Synthesis, Dynamic Docking, Biochemical Characterization, and in Vivo Pharmacokinetics Studies of Novel Topoisomerase II Poisons with Promising Antiproliferative Activity” (Journal of Medicinal Chemistry, 2020).

In brackets after ≈: the same amount, converted by molar mass.

Series [1] in a line: aqueous thermodynamic solubility. The series is classed as physicochemical. Conditions: PBS pH 7.4, 24 h, 25°C. On the procedure:
3. Aqueous t herm odynam ic solu bili ty
The thermodynamic solubility of 3f was determined by addition of Phosphate Buffered Saline (PBS) at pH 7. 4 to an exces s of solid compound.
The assay was performed by incubation of an aliquot of 2. 5mg of test compound in 500µL of PBS at pH 7. 4. The suspension was shaken at 300 RPM for 24h at 25°C. At the end of the incubation period, the saturated solution was filtered and analyzed by UPLC/MS for the quantification of dissolved compound (in µM) by UV at a specific wavelength ( λmax of the test compound). The analyses were performed on a Waters ACQUITY UPLC/MS SQD system equipped with an ESI ion source. The analyses were run on an ACQUITY UPLC BEH C 18 column (50x2. 1mmI D, particle size 1. 7µm) with a VanGuard BEH C 18 pr e-column (5x2. 1mmID, particle size 1. 7µm), using H 2O + 0. 1% HCOOH (A) and CH 3CN + 0. 1% HCOOH (B) as mobile phase.
4. Plasm a Protei n Bindi ng
The assay was conducted in triplicate in human and mouse plasma. An appropriate volume of plasma was spiked with a known amount of 10mM DMSO stock solution of the test compound, thus reaching the incubation concentrations of 0. 5, 1 and 5 µM. […] At this point, the supernatants were ready for injections in the UPLC -MS/ MS system. […] Plasma protein binding was calculated applying appropriate corrections to compensate for dilutions during sampling.

A further series deals with T1, human topoIIα (Homo sapiens, UniProt P11388).
T1 construct: purchased Inspiralis
Kind of series: topoII decatenation assay (Inspiralis). The series is classed as biochemical. On the procedure:
We measured the inhibitor activity of our new compounds against human topoIIα, using a topoII decatenation assay (Table 1).
The activity of topoIIα was measured using a decatenation assay (Inspiralis) following the manufacturer’s instructions. Compounds were dissolved in DMSO and used at a concentration ranging from 200 to 1 μM. Final DMSO concentration in the assay was ≤1%. Reaction mixtures were incubated for 30 min at 37 °C and terminated with STEB buffer (40% (w/v) sucrose, 100 mM Tris-HCl, pH 8, 1 mM EDTA, 0.5 mg/mL bromophenol blue). Reaction products were resolved by electrophoresis in 1% agarose gels containing SYBR Safe DNA stain (Invitrogen), scanned, and quantified using the ChemiDoc system (BioRad). IC50 values were obtained with GraphPad Prism software (version 5.03) using the band intensities of the dose–response gels. Values are reported as the mean ± SD of two independent experiments.

T1 sequence (P11388 whole entry): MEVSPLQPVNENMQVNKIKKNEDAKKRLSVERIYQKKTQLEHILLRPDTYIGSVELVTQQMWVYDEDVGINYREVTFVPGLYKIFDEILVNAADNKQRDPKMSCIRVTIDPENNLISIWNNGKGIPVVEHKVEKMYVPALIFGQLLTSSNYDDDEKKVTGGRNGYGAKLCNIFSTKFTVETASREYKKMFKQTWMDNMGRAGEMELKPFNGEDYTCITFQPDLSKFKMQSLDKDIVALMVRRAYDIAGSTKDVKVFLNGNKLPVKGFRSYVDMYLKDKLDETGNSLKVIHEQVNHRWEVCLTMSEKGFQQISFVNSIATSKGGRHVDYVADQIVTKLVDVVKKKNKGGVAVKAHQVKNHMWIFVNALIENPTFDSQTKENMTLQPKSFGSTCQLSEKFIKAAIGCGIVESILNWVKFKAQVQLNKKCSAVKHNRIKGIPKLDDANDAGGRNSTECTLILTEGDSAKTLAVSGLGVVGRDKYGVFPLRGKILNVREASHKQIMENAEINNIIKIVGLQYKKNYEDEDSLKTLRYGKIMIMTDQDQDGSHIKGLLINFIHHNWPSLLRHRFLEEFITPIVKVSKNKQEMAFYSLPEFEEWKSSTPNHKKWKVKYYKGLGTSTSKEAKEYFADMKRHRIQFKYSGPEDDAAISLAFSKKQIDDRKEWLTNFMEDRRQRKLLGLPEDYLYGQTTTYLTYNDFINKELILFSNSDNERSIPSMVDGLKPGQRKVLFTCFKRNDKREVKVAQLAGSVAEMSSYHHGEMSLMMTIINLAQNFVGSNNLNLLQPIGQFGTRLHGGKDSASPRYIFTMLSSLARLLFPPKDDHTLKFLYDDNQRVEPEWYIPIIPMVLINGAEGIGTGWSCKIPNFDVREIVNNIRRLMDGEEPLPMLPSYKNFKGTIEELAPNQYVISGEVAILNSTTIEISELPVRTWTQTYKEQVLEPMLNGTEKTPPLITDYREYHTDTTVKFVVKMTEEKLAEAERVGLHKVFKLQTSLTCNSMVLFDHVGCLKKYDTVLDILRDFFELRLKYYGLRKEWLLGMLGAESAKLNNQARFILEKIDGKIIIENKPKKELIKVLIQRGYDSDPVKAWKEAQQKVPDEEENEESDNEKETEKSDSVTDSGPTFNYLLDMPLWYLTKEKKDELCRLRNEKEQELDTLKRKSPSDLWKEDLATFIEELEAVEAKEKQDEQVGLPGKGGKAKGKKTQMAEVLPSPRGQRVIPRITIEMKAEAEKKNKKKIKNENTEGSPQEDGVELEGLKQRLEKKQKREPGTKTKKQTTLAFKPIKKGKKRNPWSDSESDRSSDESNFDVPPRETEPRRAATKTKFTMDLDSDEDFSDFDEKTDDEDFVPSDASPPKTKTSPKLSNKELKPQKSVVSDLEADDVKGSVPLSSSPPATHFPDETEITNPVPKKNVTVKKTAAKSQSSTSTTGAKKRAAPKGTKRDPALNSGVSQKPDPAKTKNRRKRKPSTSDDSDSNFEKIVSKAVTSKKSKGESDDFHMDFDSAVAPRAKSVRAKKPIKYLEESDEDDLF

In general, thermodynamic solubility refers to the concentration in solution at equilibrium with solid. Usually IC50 stands for the concentration that gives 50% inhibition. `O=C(Nc1cccc(OC(F)(F)F)c1)c1c(O)n(-c2ccccc2)c(=S)n(-c2ccccc2)c1=O` [3f, 6-Hydroxy-4-oxo-1,3-diphenyl-2-thioxo-N-(3-(trifluoromethoxy)phenyl)-1,2,3,4-tetrahydropyrimidine-5-carboxamide] yielded a solubility (thermodynamic) at 24 h in series [1] of 30 µM (≈ 15 µg/mL). Besides, the concentration for half-maximal inhibition (IC50) on human topoIIα (human topoIIα decatenation assay, mean ± SD of two independent experiments, read-out: IC50) is 7.3 ± 1.5 µM. Besides, the “fold increased activity compared to ARN16267” value at human topoIIα (topoIIα decatenation IC50 versus ARN16267) is given as 2 fold.
